# Laboratory results: PubChem BioAssay AID1996
# Settings: buffer; pH 7.4; 200.0 µM
row,solubility kinetic,Compound
1,> 39.6 µg/mL,CCOc1ccc(S(=O)(=O)NCCCl)cc1
2,> 44.9 µg/mL,Cc1cccn2cc(CCNC(=O)Cc3cccs3)nc12
3,32.1 µg/mL,COc1cc([N+](=O)[O-])ccc1NC(=O)N1CCCCCC1
4,< 0.4 µg/mL,CCOc1ccccc1NC(=O)c1ccccc1NC(=O)c1ccco1
5,13 µg/mL,COc1ccc(N2C(=O)Cc3c2nc(N)c(C#N)c3N)cc1
6,3.5 µg/mL,CC(=O)NCCc1nc2cc(NC(=O)c3cccc([N+](=O)[O-])c3)ccc2n1C
7,41.8 µg/mL,CNC(=S)NC(CC(=O)OC)c1ccc2c(c1)OCO2 (stereo not given)
8,38.4 µg/mL,O=C(NC1CCCC1)C1CC(=O)N(c2ccc(F)cc2)C1 (stereo not given)
9,> 52.2 µg/mL,Cc1cc(C)cc(N2C(N)=NC(N)=NC2c2ccccc2F)c1.Cl (stereo not given)
10,4.4 µg/mL,Cc1ccc(Cl)c(OCCN2CCc3ccccc3C2)c1.Cl
11,9.3 µg/mL,CC(Sc1nc2ncc(Cl)cc2[nH]1)C(=O)Nc1ccc(C(N)=O)cc1 (stereo not given)
12,36.5 µg/mL,CC(C)(C)C(=O)O/N=C1\CCS(=O)(=O)c2sccc21
13,> 63.4 µg/mL,CN(C(=O)c1ccc(F)cc1)c1ccc(OCC(=O)Nc2ccccc2C(=O)O)cc1
14,1.5 µg/mL,O=C(c1cc2c(s1)CCCC2)N1CCN(c2ccccc2)CC1
15,0.9 µg/mL,Cc1cc(NC(=O)c2cc(C(C)(C)C)oc2C)no1
16,45.4 µg/mL,CCOc1cccc(C=NCCc2ccc(OC)c(OC)c2)c1O
17,> 41.3 µg/mL,O=C(O)C1CCN(S(=O)(=O)c2cccs2)CC1
18,> 41.3 µg/mL,CSc1ccccc1C(=O)NCCCn1ccnc1
19,2.7 µg/mL,COCc1cc(=O)[nH]c(/N=C(\N)Nc2cccc(Cl)c2)n1
20,7.2 µg/mL,C#CCSc1nc(C)cc(C(=O)OCC)c1C#N

row,solubility kinetic,Compound
1,4.1 µg/mL,CCOc1ncccc1C(=O)Nc1cc(C(F)(F)F)ccc1N1CCOCC1
2,43 µg/mL,Br.Fc1ccc(-c2csc(NC3=NCCC3)n2)cc1
3,0.4 µg/mL,Fc1ccccc1-c1csc(-c2cccnc2)n1
4,6.2 µg/mL,Cc1cc(C(=O)COC(=O)/C=C/c2ccc(F)cc2)c(C)n1C
5,2.3 µg/mL,O=S(=O)(Oc1ccccc1N1CCCCC1)c1ccccc1
6,40.9 µg/mL,COc1ccccc1NC(=S)Nc1cccc2cnccc12
7,> 54.8 µg/mL,Cc1ccc(S(=O)(=O)N2CCN(CC(=O)N3CCCC3)CC2)c(C)c1
8,> 52.4 µg/mL,CCCCN(Cc1cc2cc(C)ccc2[nH]c1=O)C(=O)c1ccccn1
9,36 µg/mL,COc1cc2c(cc1OC)CN(C(=O)c1cccc([N+](=O)[O-])c1)CC2
10,21.3 µg/mL,O=C1/C(=C\c2ccsc2)N2CCC1CC2
11,54.1 µg/mL,COc1cccc(-n2c(SCc3ccccn3)nc3c(c2=O)SCC3)c1
12,27.6 µg/mL,Cc1ccc(CSCC(=O)Nc2ccccc2F)cc1
13,37.1 µg/mL,O=C1C=C(N2CCCCCC2)C2(CCCCC2)O1
14,3.8 µg/mL,CC(NC(=O)Cc1ccsc1)c1ccc(Cl)cc1Cl (stereo not given)
15,26.3 µg/mL,O=C(CCCC(=O)N1CCCC1)N1CCCC1
16,> 46.2 µg/mL,Cc1ccc(C#CC[N+]2(C)CCCCC2)cc1.[Br-]
17,10 µg/mL,CCN(CC)S(=O)(=O)c1ccc(Oc2ccccc2OC)cc1
18,47.4 µg/mL,Cc1ccc(NC(=O)CN(C)C(=O)C2COc3ccccc3O2)cc1 (stereo not given)
19,> 55.4 µg/mL,O=C(NCC1CCCO1)c1cc(Br)c(Br)s1 (stereo not given)
20,23.8 µg/mL,COc1ccc(C(=O)O/N=C(\N)c2ccccc2)cc1OC

row,solubility kinetic,Compound
1,> 43.3 µg/mL,COc1ccc(NC(=S)Nc2ccccc2)c(OC)c1
2,> 47.3 µg/mL,Cc1cc(C(=O)N2CCN(c3ccc([N+](=O)[O-])cc3)CC2)co1
3,> 41.6 µg/mL,Cc1ccc(OCC(=O)OCC(=O)NC2CC2)cc1C
4,10.2 µg/mL,CCCCOc1ccc(CC2CCC(=O)NC2=O)cc1 (stereo not given)
5,> 27.8 µg/mL,Oc1cncc(Cc2ccccc2)c1
6,> 49.9 µg/mL,CCc1ccc(C(=O)NC(C(=O)NCC2CCCO2)C(C)C)cc1 (stereo not given)
7,2.1 µg/mL,S=C(Nc1ccccc1)Nc1ccc(Cl)cn1
8,2.8 µg/mL,CCNc1nc(NCC)nc(Oc2ccc(C(=O)OC)cc2)n1
9,20.3 µg/mL,Nc1cccc(-c2nc3ccc(C(=O)c4ccccc4)cc3[nH]2)c1
10,> 61.7 µg/mL,CN(C(=O)CSc1ncnc2sc3c(c12)CCCC3)C1CCS(=O)(=O)C1 (stereo not given)
11,45.2 µg/mL,OCCC1CN(Cc2ccc3c(c2)CCO3)CCN1C1CCCC1 (stereo not given)
12,> 48.7 µg/mL,CC(C)CCC(C(=O)O)C(C)CC(=O)NNC(=O)c1ccco1 (stereo not given)
13,3.7 µg/mL,Clc1ccccc1C(c1ccccc1)(c1ccccc1)n1ccnc1
14,> 36.3 µg/mL,CCn1cc(C2CC(=O)NC2=O)c2ccccc21 (stereo not given)
15,> 43.1 µg/mL,Cn1c(C(=O)NCCc2ccccc2)cc(=O)n(C)c1=O
16,11.5 µg/mL,Cc1noc(C)c1COc1ccc2ccc(=O)oc2c1
17,45.6 µg/mL,COC(=O)c1ccc(S(=O)(=O)N2CCN(CCO)CC2)n1C
18,38.8 µg/mL,COc1ccccc1C(=O)NCC(=O)NCCc1ccc(Cl)cc1
19,3 µg/mL,O=c1c(-c2ccco2)[n+]([O-])c2ccccc2n1OCc1c(F)cccc1F
20,43.9 µg/mL,CC1CCCCN1C(=O)CCn1c(=S)oc2ccccc21 (stereo not given)
